Data on three compounds can be found in US20020028847A1, “Method for treatment of fibrosis related diseases by the administration of prostacyclin derivatives” (Fibrogen, Inc., priority 1998, published 2002).

Where two headings read alike, the source gives them in different places.

One test has as its system metastasis. As to conditions: several different animal models; cited from earlier work.
Another test concerns CTGF RNA. The test is described as follows: Northern blot for CTGF RNA. The class given is cell-based. The conditions noted are these: cells treated with TGF-β and iloprost. As for the experimental part: Cultured cells are grown to confluence on 100 mm plates. The cells were then serum starved with ascorbate for 24 hours, after which conditioned medium with TGF-β and Iloprost was added. The cells were then lysed with TRIzol (Gibco catalog no. 15596-018) wherein 1 ml per plate of the TRIzol was added and the plate was left at room temperature for ten minutes. 200 μl of chloroform was then added and the cells were vortexed for 20 seconds. The cells were then left alone for 5 minutes at room temperature and then centrifuged in a microcentrifuge tube for 10 minutes at maximum speed at 4° C. The upper layer was then removed (layer containing RNA) and then mixed with an equal volume of isopropanol. The mixture was then centrifuged for 10 minutes to form a pellet of RNA. 0.5 ml of 70% ethanol in RNAse free purified water was then added to the pellet. The ethanol was then tipped off and the pellet was left to dry. After five minutes, the pellet was resuspended in 20 μl of RNAse free water and kept on ice. To assay the RNA using a photospectometer, a sample of the RNA was diluted 1/500 (volume 1 ml) and read at OD 260 nm (to measure RNA) and 280 nm (to measure protein). RNA concentration was calculated in terms of μg/μl=(OD260×40×dilution)/1000. […]

Test [1] concerns platelet thrombus formation. As to conditions: animals with thrombin induced thrombosis; cited from earlier work.
For another test, the system named is Raynaud's phenomena. The conditions noted are these: patients; cited from earlier work.
The subject of the next test is CTGF. Nature of the test: CTGF ELISA on cultured skin fibroblasts. Type of test: cell-based, human. The conditions noted are these: scleroderma fibroblasts. From the text: 4 mm punch skin biopsies were taken from the forearms of healthy volunteers and from patients with active diffuse scleroderma. Fibroblasts from these biopsies were subcultured to passage 6 in Dulbecco's modified eagle medium with 10% fetal calf serum and Pen Strep solution and grown to confluence. Twenty-four hours before assay, the fibroblasts were switched to serum free media with exchange of media every eight (8) hours. Upon switching to serum free medium (L-ascorbic acid phosphate magnesium salt n-hydrate) (C6H6O9P) 3/2 Mg was added at a final concentration of 30 μg/ml. The following protocol was used for the CTGF ELISA: 1. Plate antigen on Nunc immuno plase Maxisorp surface (catalog number 442402). 2. CTGF standard curve by two fold serial dilution in 6 triplicates (see Table 1, below). 3. Add 50 μl of sample to each well. 4. Leave wells for 2 hours at room temperature. 5. Wash wells 4 times with PBSa. 6. Add first layer antibody (pAB2 rabbit anti-human CTGF (0.8 mg/ml)( 1/1280)) diluted to 625 ng/ml in blocking buffer (1% BSA/0.05% tween20/PBS). 7. Add 50 μl to each well and leave at room temperature for one hour. 8. Wash wells five times with PBS. 9. Add second layer antibody donkey anti-rabbit IgG, HRP linked whole antibody (Amersham Life Sciences, Catalog No. NA 934 diluted 1/3200 in block buffer). 10. […] Stop reaction with 50 μl per well of 1M H2SO4 and read OD at 450 nm.
(In general: In an ELISA, binding on a coated surface is turned into a signal by an enzyme label.)

In the next test the test system is CTGF promoter. Nature of the test: CTGF promoter/luciferase transfection assay in normal human fibroblasts. The class given is cell-based. The conditions noted are these: measured over a twenty-four hour period. As for the experimental part:
Normal human fibroblasts were grown to 80% confluence in a 6 well plate. 1 μg of DNA (CTGF promoter/luciferase) was added with 3 μl of FuGene 6 transfection reagent (Boehringer Mannheim 1814443); wherein the FuGene 6 was added dropwise to serum free culture medium and left at room temperature for five minutes and added to 1 µg of DNA in a separate tube for fifteen minutes. The DNA/FuGene 6 solution was then added dropwise to the cell culture by spreading around each well and swirling the flasks. The cell culture was returned to an incubator and the cells were grown again to confluence, approximately 36 hours. The cells were then switched to a serum free medium with ascorbate and left overnight. The cells were then treated for 24 hours as follows: control; Iloprost 1000 pg/ml; TGF-β 20 ng/ml; and TGF-β 20 ng/ml+Iloprost 1000 pg/ml.
After 24 hours the cells were lysed with Promega reporter lysis buffer (E 397A) at room temperature, 400 μl per […] and left for 15 minutes at room temperature. A 50 μl sample of the lysate was drawn and 100 μl of luciferase assay reagent (Promega E 148A) was added. Chemiluminensence was read using a plate reader program ARQ.1PT software micro P1.00.

The next test has as its system scleroderma fibroblasts. The test is described as follows: ELISA for collagen (N propeptide of Type I collagen α chain) in cultured skin fibroblasts. Type of test: cell-based, human. The source says:
4 mm punch skin biopsies were taken from the forearms of healthy volunteers and from patients with active diffuse scleroderma. Fibroblasts from these biopsies were subcultured to passage 6 in Dulbecco's modified eagle medium with 10% fetal calf serum and Pen Strep solution and grown to confluence. Twenty-four hours before assay, the fibroblasts were switched to serum free media with exchange of media every eight (8) hours. Upon switching to serum free medium (L-ascorbic acid phosphate magnesium salt n-hydrate) (C6H6O9P) 3/2 Mg was added at a final concentration of 30 μg/ml. The supernatant fluid from the above described culture was diluted 1/100 in 0.1 M NaHCO3 and 100 μl of said diluted culture was added to each well of a 96 well maxisorp plate. The plate was then left at room temperature for two hours on a plate shaker. The plate was then washed once in PBS. 200 μl of 2% BSA in PBS was then added and the plate was left for two hours to block non-specific binding. The plate was then washed four times in PBS and first layer antibody, anti-N-procollagen I rabbit polyclonal, diluted 1/2000 in 1% BSA PBS, was added at 100 μl/well. The plate was left for two (2) hours at room temperature and then washed four times in PBS. A second layer antibody, HRP labeled goat anti-rabbit IgG 1/2000, was then added and left for two hours. […] The plate was then read on a multiwell analyser.

The test system of test [2] is renal interlobar and cortical arteries. As to conditions: scleroderma patients, iloprost infusions; cited from earlier work.

`CCC#CC[C@H](C)[C@H](O)C#C[C@@H]1[C@H]2C/C(=C/COCCCC(=O)O)C[C@H]2C[C@H]1O` [eptaloprost]: the inhibition of metastasis entry in the test on metastasis is “antimetastically acting agents”.
For `CC#CCC(C)[C@H](O)/C=C/[C@@H]1[C@H]2C/C(=C/CCCC(=O)O)C[C@H]2C[C@H]1O` (stereo partly drawn) [Iloprost, 5-(E)-(1S,5S,6R)-7-hydroxy-6[(E)-(3S,4RS)-3-hydroxy-4-methyl-1-octen-6-inyl]bicyclo[3.3.0]octen-3-ylidene pentanoic acid], the “TGF-β induced synthesis of CTGF RNA” value is “inhibit CTGF production” in the test on CTGF RNA and “blocked” with CTGF RNA (listed as iloprost). Further, the platelet thrombus formation result in test [1] was “prevent platelet thrombus formation”. In addition, the “safety and efficacy in Raynaud's phenomena” value in the test on Raynaud's phenomena is “safe and effective therapy”. For the same compound, the CTGF production entry in the test with CTGF was “decrease in CTGF production”; with CTGF (listed as iloprost), “capable of inhibiting collagen production and CTGF production”. Further, the “time of most pronounced inhibitory effect on CTGF production” value with CTGF promoter is “most pronounced between hour 1 and hour 3”. Further, the “excessive production of collagen” value in the test with scleroderma fibroblasts is “inhibited”; in the test with scleroderma fibroblasts (listed as iloprost), “capable of inhibiting collagen production”. In test [2], the “resistive index of the renal interlobar and cortical arteries” value is “reduction of the resistive index”.
With `CCC#CC[C@H](C)[C@H](O)C#C[C@@H]1[C@H]2C/C(=C/COCC(=O)O)C[C@H]2C[C@H]1O` [cicaprost], in the test on metastasis, the inhibition of metastasis entry is listed as “effectively inhibit metastasis”.
